In the assay the target is human F508del-CFTR (Homo sapiens, UniProt P13569, DEL508-508). Nature of the assay: F508del-CFTR cell surface expression (corrector activity), DiscoveRx ß-galactosidase complementation chemiluminescence assay in recombinant U2OS cell line.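 For all read-outs here: U2OS cells co-expressing ProLink-tagged F508del-CFTR and a membrane-anchored enzyme acceptor, where more surface CFTR restores β-galactosidase activity measured by chemiluminescence.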 The note with it: U2OS cell line, 16h compound incubation; for EC50: EC50, F508del-CFTR cell surface expression, geomean values; for Emax: U2OS, in relation to the Emax of the corrector lumacaftor (=100%), arithmetic mean values.
Sequence of human F508del-CFTR (P13569 with tags, fused parts or gaps DEL508-508): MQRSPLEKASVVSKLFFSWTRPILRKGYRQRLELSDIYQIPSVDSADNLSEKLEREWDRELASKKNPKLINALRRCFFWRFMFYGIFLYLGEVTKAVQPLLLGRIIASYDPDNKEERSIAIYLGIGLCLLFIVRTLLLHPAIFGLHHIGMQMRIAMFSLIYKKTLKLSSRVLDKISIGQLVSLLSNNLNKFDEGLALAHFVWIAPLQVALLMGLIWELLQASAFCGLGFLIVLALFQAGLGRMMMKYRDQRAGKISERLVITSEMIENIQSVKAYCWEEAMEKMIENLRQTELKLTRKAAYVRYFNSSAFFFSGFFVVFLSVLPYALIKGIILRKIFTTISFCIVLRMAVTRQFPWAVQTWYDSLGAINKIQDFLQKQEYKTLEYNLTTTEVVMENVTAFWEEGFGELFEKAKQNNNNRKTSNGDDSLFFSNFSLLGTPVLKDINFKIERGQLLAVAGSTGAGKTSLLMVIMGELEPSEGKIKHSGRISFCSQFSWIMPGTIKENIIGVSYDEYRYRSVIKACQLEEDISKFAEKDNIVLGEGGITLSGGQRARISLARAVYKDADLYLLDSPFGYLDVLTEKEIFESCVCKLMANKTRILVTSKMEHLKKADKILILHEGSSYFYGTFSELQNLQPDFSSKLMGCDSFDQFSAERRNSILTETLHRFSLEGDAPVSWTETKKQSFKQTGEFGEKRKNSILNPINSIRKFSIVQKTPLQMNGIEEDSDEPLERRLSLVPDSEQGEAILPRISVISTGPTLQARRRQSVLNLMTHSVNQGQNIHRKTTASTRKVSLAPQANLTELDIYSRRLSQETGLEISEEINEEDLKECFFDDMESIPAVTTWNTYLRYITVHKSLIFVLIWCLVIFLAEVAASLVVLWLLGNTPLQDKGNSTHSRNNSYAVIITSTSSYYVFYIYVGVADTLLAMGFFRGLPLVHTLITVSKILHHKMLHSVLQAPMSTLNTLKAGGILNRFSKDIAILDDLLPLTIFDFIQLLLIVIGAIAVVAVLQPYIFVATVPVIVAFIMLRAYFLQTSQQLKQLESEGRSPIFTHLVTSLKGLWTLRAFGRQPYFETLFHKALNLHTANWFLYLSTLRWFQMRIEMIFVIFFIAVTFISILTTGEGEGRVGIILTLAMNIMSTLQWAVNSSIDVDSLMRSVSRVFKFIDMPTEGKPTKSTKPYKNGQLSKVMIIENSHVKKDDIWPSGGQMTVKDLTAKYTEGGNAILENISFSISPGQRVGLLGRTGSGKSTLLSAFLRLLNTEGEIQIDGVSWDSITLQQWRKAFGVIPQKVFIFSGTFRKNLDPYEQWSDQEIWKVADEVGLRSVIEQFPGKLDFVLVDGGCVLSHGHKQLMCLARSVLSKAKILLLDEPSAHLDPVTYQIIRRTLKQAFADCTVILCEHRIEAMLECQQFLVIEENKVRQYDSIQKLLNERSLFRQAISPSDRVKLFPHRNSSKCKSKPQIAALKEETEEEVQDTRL

For the molecule `COc1ccc(CCNC(=O)[C@@H]2CC(=O)N(C)[C@@H](CC(C)C)C(=O)N3CCCC[C@@H]3C(=O)N[C@H](Cc3ccccc3)COc3ccc4ncn(C)c4c3C(=O)N2)cc1` (racemic) [Example 25, (8RS,12S,18aR,21R)-21-benzyl-12-isobutyl-N-(4-methoxyphenethyl)-5,11-dimethyl-6,10,13,19-tetraoxo-6,7,8,9,10,11,12,13,16,17,18,18a,19,20,21,22-hexadecahydro-5H,15H-imidazo[4′,5′:5,6]benzo[1,2-p]pyrido[2,1-f][1]oxa[4,7,10,14]tetraazacycloheptadecine-8-carboxamide], the EC50 amounted to 547 nM and the maximal effect (Emax) was 142%.
Taken in the same sequence, the figures for `CC(C)C[C@H]1C(=O)N2CCCC[C@@H]2C(=O)N[C@H](Cc2ccccc2)COc2ccc3ncn(C)c3c2C(=O)N[C@H](C(=O)NCCc2cccc(OC(F)F)c2)CC(=O)N1C` (racemic) [Example 26, (8RS,12S,18aR,21R)-21-benzyl-N-(3-(difluoromethoxy)phenethyl)-12-isobutyl-5,11-dimethyl-6,10,13,19-tetraoxo-6,7,8,9,10,11,12,13,16,17,18,18a,19,20,21,22-hexadecahydro-5H,15H-imidazo[4′,5′:5,6]benzo[1,2-p]pyrido[2,1-f][1]oxa[4,7,10,14]tetraazacycloheptadecine-8-carboxamide] were 299 nM and 111%.
`CC(C)C[C@H]1C(=O)N2CCCC[C@@H]2C(=O)N[C@H](Cc2ccccc2)COc2ccc3ncn(C)c3c2C(=O)N[C@H](C(=O)NCCc2ccccc2)CC(=O)N1C` (racemic) [Example 27, (8RS,12S,18aR,21R)-21-benzyl-12-isobutyl-5,11-dimethyl-6,10,13,19-tetraoxo-N-phenethyl-6,7,8,9,10,11,12,13,16,17,18,18a,19,20,21,22-hexadecahydro-5H,15H-imidazo[4′,5′:5,6]benzo[1,2-p]pyrido[2,1-f][1]oxa[4,7,10,14]tetraazacycloheptadecine-8-carboxamide]: the 50% effective concentration (EC50) is 474 nM and the Emax came out at 114%.
As to `CC(C)C[C@H]1C(=O)N2CCCC[C@@H]2C(=O)N[C@H](Cc2ccccc2)COc2ccc3ncn(C)c3c2C(=O)N[C@H](C(=O)NCCc2cccc(-n3nccn3)c2)CC(=O)N1C` (racemic) [Example 28, (8RS,12S,18aR,21R)-N-(3-(2H-1,2,3-triazol-2-yl)phenethyl)-21-benzyl-12-isobutyl-5,11-dimethyl-6,10,13,19-tetraoxo-6,7,8,9,10,11,12,13,16,17,18,18a,19,20,21,22-hexadecahydro-5H,15H-imidazo[4′,5′:5,6]benzo[1,2-p]pyrido[2,1-f][1]oxa[4,7,10,14]tetraazacycloheptadecine-8-carboxamide], the maximal response (Emax) stood at 106%.
The same measure, in the same setting: the value for `COc1cccc(CCNC(=O)[C@@H]2CC(=O)N(C)[C@@H](CC(C)C)C(=O)N(C)CC(=O)N[C@H](Cc3ccccc3)COc3cc4c(cc3C(=O)N2)OCO4)c1OC` (racemic) [Example 151, (7R,13S,17RS)-7-benzyl-N-(2,3-dimethoxyphenethyl)-13-isobutyl-11,14-dimethyl-9,12,15,19-tetraoxo-6,7,8,9,10,11,12,13,14,15,16,17,18,19-tetradecahydro-[1,3]dioxolo[4′,5′:4,5]benzo[1,2-p][1]oxa[4,7,10,14]tetraazacycloheptadecine-17-carboxamide] was 106%; that for `COc1cc2c(cc1OC)C(=O)N[C@H](C(=O)NCCc1ccc3c(c1)CCO3)CC(=O)N(C)[C@@H](CC(C)C)C(=O)N(C)CC(=O)N[C@H](Cc1ccccc1)CO2` (racemic) [Example 152, (3R,9S,13RS)-3-benzyl-N-(2-(2,3-dihydrobenzofuran-5-yl)ethyl)-9-isobutyl-17,18-dimethoxy-7,10-dimethyl-5,8,11,15-tetraoxo-2,3,4,5,6,7,8,9,10,11,12,13,14,15-tetradecahydrobenzo[p][1]oxa[4,7,10,14]tetraazacycloheptadecine-13-carboxamide] was 133%.

A word on the EC50: it is the concentration giving half of the maximal effect. As usually defined, the Emax is the greatest response seen or fitted, relative to the assay's reference.

The values are drawn from patent US20240208992A1, “MACROCYCLES AS CFTR MODULATORS” (Idorsia Pharmaceuticals Ltd, priority 2021, published 2024).
